How the values were obtained:
Protease = Protease (Human immunodeficiency virus 1, UniProt Q9YQ12); assay: Inhibition of HIV1 protease; type: single protein
[1] = tested on: Human immunodeficiency virus 1; assay: Antiviral activity against HIV1 LAI infected in human MT2 cells assessed as inhibition of virus-induced cytopathic effect by MTT assay; type: functional, organism-based; conditions: Human immunodeficiency virus 1, LAI
[2] = tested on: Human immunodeficiency virus 1; assay: Antiviral activity against HIV-1 MDR/MM infected in human PHA-PBM cells assessed as inhibition of p24 Gag protein production; type: functional, organism-based; conditions: Human immunodeficiency virus 1, MDR/MM, PBMC
[3] = tested on: Human immunodeficiency virus 1; assay: Antiviral activity against wild type HIV-1 ERS104 pre infected in human PHA-PBM cells assessed as inhibition of p24 Gag protein production; type: functional, organism-based; conditions: Human immunodeficiency virus 1, ERS104pre, PBMC
[4] = tested on: Human immunodeficiency virus 1; assay: Antiviral activity against HIV-1 MDR/JSL infected in human PHA-PBM cells assessed as inhibition of p24 Gag protein production; type: functional, organism-based; conditions: Human immunodeficiency virus 1, MDR/JSL, PBMC
[5] = tested on: Human immunodeficiency virus 1; assay: Antiviral activity against HIV-1 MDR/B infected in human PHA-PBM cells assessed as inhibition of p24 Gag protein production; type: functional, organism-based; conditions: Human immunodeficiency virus 1, MDR/B, PBMC
[6] = tested on: Human immunodeficiency virus 1; assay: Antiviral activity against HIV-1 MDR/G infected in human PHA-PBM cells assessed as inhibition of p24 Gag protein production; type: functional, organism-based; conditions: Human immunodeficiency virus 1, MDR/G, PBMC
[7] = tested on: Human immunodeficiency virus 1; assay: Antiviral activity against HIV-1 MDR/C infected in human PHA-PBM cells assessed as inhibition of p24 Gag protein production; type: functional, organism-based; conditions: Human immunodeficiency virus 1, MDR/C, PBMC
[8] = tested on: Human immunodeficiency virus 1; assay: Antiviral activity against HIV-1 MDR/TM infected in human PHA-PBM cells assessed as inhibition of p24 Gag protein production; type: functional, organism-based; conditions: Human immunodeficiency virus 1, MDR/TM, PBMC

Protease, sequence (Q9YQ12 whole entry): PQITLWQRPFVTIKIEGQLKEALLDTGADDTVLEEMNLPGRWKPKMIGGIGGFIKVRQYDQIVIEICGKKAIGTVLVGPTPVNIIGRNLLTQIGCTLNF

Compound	Ki (Protease) [nM]	IC50 [1] [nM]	further results
COc1ccc(S(=O)(=O)N(CC(C)C)C[C@@H](O)[C@H](Cc2ccccc2)NC(=O)O[C@H]2CO[C@H]3OCC[C@H]3C2)cc1	0.11		
CC(C)CN(C[C@@H](O)[C@H](Cc1ccccc1)NC(=O)O[C@H]1CCOC1)S(=O)(=O)c1ccc(N)cc1		30	
COc1ccc(S(=O)(=O)N(CC(C)C)C[C@@H](O)[C@H](Cc2ccccc2)NC(=O)O[C@H]2CCC[C@H]3CCC[C@H]32)cc1	9	> 1000	
COc1ccc(S(=O)(=O)N(CC(C)C)C[C@@H](O)[C@H](Cc2ccccc2)NC(=O)O[C@H]2CCC[C@H]3OCC[C@@H]23)cc1	0.005	8	
CC(C)(C)NC(=O)[C@@H]1C[C@@H]2CCCC[C@@H]2CN1C[C@@H](O)[C@H](Cc1ccccc1)NC(=O)[C@H](CC(N)=O)NC(=O)c1ccc2ccccc2n1		15	
COc1ccc(S(=O)(=O)N(CC(C)C)C[C@@H](O)[C@H](Cc2ccccc2)NC(=O)O[C@@H]2CCO[C@@H]3OCC[C@@H]32)cc1	0.068	19	
COc1ccc(S(=O)(=O)N(CC(C)C)C[C@@H](O)[C@H](Cc2ccccc2)NC(=O)O[C@H]2CCO[C@H]3CCC[C@H]32)cc1	1.43		
COc1ccc(S(=O)(=O)N(CC(C)C)C[C@@H](O)[C@H](Cc2ccccc2)NC(=O)O[C@H]2CCO[C@H]3COC[C@H]32)cc1	5.3	> 1000	
CC(C)CN(C[C@@H](O)[C@H](Cc1ccccc1)NC(=O)O[C@H]1CCO[C@H]2OCC[C@H]21)S(=O)(=O)c1ccc(CO)cc1	0.085	4.5	
COC(=O)N[C@H](C(=O)N[C@@H](Cc1ccccc1)[C@@H](O)CN(Cc1ccc(-c2ccccn2)cc1)NC(=O)[C@@H](NC(=O)OC)C(C)(C)C)C(C)(C)C [ATAZANAVIR]			EC50 [2]: 205 nM; EC50 [3]: 2.7 nM; EC50 [4]: 293 nM; EC50 [5]: 470 nM; EC50 [6]: 19 nM; EC50 [7]: 39 nM; EC50 [8]: 75 nM
CC(C)CN(C[C@@H](O)[C@H](Cc1ccccc1)NC(=O)O[C@H]1CCO[C@H]2OCC[C@H]21)S(=O)(=O)c1ccc(N)cc1	0.01	6.5	
Cc1cccc(C)c1OCC(=O)N[C@@H](Cc1ccccc1)[C@@H](O)C[C@H](Cc1ccccc1)NC(=O)[C@H](C(C)C)N1CCCNC1=O [LOPINAVIR]			EC50 [4]: > 1000 nM; EC50 [5]: > 1000 nM
COc1ccc(S(=O)(=O)N(CC(C)C)C[C@@H](O)[C@H](Cc2ccccc2)NC(=O)O[C@H]2CCO[C@H]3OCC[C@H]32)cc1	0.0027	0.5	EC50 [2]: 5 nM; EC50 [3]: 1.9 nM; EC50 [4]: 27.5 nM; EC50 [5]: 14.5 nM; EC50 [6]: 2.6 nM; EC50 [7]: 3.7 nM; EC50 [8]: 27.5 nM

Reference: ChEMBL document CHEMBL1649426 (J Med Chem, 2011)
